# Test results reported in ChEMBL document CHEMBL3813593, “Design, synthesis and biological evaluation of 4-aminopyrimidine-5-cabaldehyde oximes as dual inhibitors of c-Met and VEGFR-2” (Bioorg Med Chem, 2016).
# How the values were obtained:
# [1] = Lipophilicity, log P of compound by shake flask method; format: physicochemical; conditions: octanol/water
# [2] = cells; conditions: Mus musculus, BaF3, 72 h
# [3] = test system: HUVEC; experiment: Antiproliferative activity against recombinant human VEGF-stimulated HUVEC after 120 hrs by CCK8 assay; format: functional, cell-based
# [4] = target: T1, Vascular endothelial growth factor receptor 2 (Homo sapiens, UniProt P35968); experiment: Inhibition of VEGFR2 (unknown origin)
# [5] = target: T1, Vascular endothelial growth factor receptor 2; experiment: Inhibition of recombinant VEGFR2 (unknown origin) using poly (Glu, Tyr) 4:1 as substrate incubated for 60 mins by ELISA
# [6] = target: Hepatocyte growth factor receptor (Homo sapiens, UniProt P08581); experiment: Inhibition of recombinant c-Met (unknown origin) using poly (Glu, Tyr) 4:1 as substrate incubated for 60 mins by ELISA
# Hepatocyte growth factor receptor, sequence (P08581 whole entry): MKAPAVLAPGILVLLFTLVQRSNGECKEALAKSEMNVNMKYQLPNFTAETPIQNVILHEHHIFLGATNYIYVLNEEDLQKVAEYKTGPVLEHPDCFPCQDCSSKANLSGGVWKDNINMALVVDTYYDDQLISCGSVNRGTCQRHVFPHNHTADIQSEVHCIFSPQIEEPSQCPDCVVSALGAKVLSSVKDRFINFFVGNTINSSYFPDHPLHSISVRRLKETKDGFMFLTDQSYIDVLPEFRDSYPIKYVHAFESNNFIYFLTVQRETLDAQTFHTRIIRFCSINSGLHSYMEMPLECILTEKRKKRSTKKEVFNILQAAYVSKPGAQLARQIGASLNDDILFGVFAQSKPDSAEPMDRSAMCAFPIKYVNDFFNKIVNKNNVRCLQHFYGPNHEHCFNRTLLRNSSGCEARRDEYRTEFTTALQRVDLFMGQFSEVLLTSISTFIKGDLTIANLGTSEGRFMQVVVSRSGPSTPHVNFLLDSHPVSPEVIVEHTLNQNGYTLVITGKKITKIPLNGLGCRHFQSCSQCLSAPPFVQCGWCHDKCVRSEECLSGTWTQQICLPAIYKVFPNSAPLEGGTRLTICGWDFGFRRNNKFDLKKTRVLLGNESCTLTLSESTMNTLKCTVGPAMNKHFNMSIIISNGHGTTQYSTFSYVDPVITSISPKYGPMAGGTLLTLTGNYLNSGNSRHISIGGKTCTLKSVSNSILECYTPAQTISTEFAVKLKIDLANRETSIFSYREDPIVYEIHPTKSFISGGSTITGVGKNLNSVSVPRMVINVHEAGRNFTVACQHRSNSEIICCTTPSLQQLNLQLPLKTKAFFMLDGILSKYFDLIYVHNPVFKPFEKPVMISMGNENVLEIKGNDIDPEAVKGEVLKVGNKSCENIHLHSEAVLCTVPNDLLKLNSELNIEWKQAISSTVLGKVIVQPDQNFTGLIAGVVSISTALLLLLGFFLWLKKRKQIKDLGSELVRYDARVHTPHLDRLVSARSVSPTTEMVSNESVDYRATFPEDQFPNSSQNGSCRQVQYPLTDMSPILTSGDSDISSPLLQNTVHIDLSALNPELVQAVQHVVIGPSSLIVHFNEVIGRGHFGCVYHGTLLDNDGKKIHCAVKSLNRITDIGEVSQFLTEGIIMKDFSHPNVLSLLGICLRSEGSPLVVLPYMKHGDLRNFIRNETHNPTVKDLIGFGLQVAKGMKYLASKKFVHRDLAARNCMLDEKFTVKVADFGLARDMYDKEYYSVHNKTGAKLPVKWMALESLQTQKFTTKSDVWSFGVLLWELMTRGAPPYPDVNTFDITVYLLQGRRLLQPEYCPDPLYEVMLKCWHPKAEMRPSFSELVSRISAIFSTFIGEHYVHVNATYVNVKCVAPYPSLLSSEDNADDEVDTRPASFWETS
# T1 sequence (P35968 whole entry): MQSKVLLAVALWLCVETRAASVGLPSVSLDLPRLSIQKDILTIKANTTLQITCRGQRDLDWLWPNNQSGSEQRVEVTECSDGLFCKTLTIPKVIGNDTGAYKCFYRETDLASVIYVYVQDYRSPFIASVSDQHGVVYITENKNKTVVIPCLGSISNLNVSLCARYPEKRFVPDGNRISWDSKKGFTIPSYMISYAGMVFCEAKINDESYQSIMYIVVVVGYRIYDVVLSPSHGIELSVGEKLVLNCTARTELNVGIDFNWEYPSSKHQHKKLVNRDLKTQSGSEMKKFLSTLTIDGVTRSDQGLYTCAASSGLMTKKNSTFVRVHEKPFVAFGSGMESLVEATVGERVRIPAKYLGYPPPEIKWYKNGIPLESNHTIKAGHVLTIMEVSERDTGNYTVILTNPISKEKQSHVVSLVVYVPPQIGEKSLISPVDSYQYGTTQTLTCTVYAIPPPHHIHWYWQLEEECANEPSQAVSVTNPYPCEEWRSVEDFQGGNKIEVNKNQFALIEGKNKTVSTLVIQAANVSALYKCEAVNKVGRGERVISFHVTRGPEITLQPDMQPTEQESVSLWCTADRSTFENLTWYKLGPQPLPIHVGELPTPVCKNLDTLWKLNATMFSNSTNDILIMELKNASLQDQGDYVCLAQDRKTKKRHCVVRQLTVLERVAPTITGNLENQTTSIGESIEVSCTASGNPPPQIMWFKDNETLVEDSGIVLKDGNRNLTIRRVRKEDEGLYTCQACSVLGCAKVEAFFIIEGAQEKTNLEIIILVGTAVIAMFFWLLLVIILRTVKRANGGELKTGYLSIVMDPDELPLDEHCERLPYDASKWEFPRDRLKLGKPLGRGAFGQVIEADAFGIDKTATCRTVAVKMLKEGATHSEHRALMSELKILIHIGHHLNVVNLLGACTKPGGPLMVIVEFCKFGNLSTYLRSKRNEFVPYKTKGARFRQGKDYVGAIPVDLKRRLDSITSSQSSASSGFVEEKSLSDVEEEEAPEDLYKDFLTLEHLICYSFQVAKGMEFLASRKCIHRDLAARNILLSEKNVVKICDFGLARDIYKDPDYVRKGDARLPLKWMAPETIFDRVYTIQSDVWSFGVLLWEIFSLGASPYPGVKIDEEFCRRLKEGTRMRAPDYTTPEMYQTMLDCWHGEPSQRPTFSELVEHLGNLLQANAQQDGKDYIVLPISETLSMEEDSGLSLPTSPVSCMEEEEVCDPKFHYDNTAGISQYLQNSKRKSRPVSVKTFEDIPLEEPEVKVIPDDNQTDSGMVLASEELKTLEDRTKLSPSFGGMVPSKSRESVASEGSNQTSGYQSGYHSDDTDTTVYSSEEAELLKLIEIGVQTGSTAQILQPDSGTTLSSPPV
Structure (SMILES),logP ([1]; read-out: logP),IC50 [2] [nM],IC50 [3] [nM],other results
COCCCO/N=C/c1c(N)ncnc1Oc1ccc(NC(=O)C2(C(=O)Nc3ccc(F)cc3)CC2)cc1F,3.18,243,,
N/N=C/c1c(N)ncnc1Oc1ccc(NC(=O)C2(C(=O)Nc3ccc(F)cc3)CC2)cc1F,2.25,765,,
Nc1ncnc(Oc2ccc(NC(=O)C3(C(=O)Nc4ccc(F)cc4)CC3)cc2F)c1/C=N/OCc1ccccc1,4.45,566,,
C#CCO/N=C/c1c(N)ncnc1Oc1ccc(NC(=O)C2(C(=O)Nc3ccc(F)cc3)CC2)cc1F,3.34,521,,
CCOC(=O)CO/N=C/c1c(N)ncnc1Oc1ccc(NC(=O)C2(C(=O)Nc3ccc(F)cc3)CC2)cc1F,3.15,> 1000,,
CCCCO/N=C/c1c(N)ncnc1Oc1ccc(NC(=O)C2(C(=O)Nc3ccc(F)cc3)CC2)cc1F,4.2,626,,
CCO/N=C/c1c(N)ncnc1Oc1ccc(NC(=O)C2(C(=O)Nc3ccc(F)cc3)CC2)cc1F,3.41,215,,
Nc1ncnc(Oc2ccc(NC(=O)C3(C(=O)Nc4ccc(F)cc4)CC3)cc2F)c1/C=N/OCC(O)CN1CCOCC1 (centres undefined),2.02,158,720,
CC(C)(C)OC(=O)N/N=C/c1c(N)ncnc1Oc1ccc(NC(=O)C2(C(=O)Nc3ccc(F)cc3)CC2)cc1F,3.7,321,,
COc1cc2nccc(Oc3ccc(NC(=O)C4(C(=O)Nc5ccc(F)cc5)CC4)cc3)c2cc1OC [CABOZANTINIB],,,,logP [1]: 4.28
Nc1ncnc(Oc2ccc(NC(=O)C3(C(=O)Nc4ccc(F)cc4)CC3)cc2F)c1/C=N/OCCN1CCCC1,3.5,162,168,
COc1cc2c(Oc3ccc(NC(=O)C4(C(=O)Nc5ccc(F)cc5)CC4)cc3F)ccnc2cc1OCCCN1CCOCC1 [FORETINIB],4.28,,,
Nc1ncnc(Oc2ccc(NC(=O)C3(C(=O)Nc4ccc(F)cc4)CC3)cc2F)c1/C=N/OCCO,2.37,200,,
CO/N=C/c1c(N)ncnc1Oc1ccc2[nH]ccc2c1,,,,IC50 [4]: 146 nM
Nc1ncnc(Oc2ccc(NC(=O)C3(C(=O)Nc4ccc(F)cc4)CC3)cc2F)c1/C=N/OCCCN1CCCC1,3.82,119,219,
Nc1ncnc(Oc2ccc(NC(=O)C3(C(=O)Nc4ccc(F)cc4)CC3)cc2F)c1/C=N/O,2.62,194,260,
CO/N=C/c1c(N)ncnc1Oc1ccc(NC(=O)C2(C(=O)Nc3ccc(F)cc3)CC2)cc1F,3.04,166,320,
C=CCO/N=C/c1c(N)ncnc1Oc1ccc(NC(=O)C2(C(=O)Nc3ccc(F)cc3)CC2)cc1F,3.65,619,,
Nc1ncnc(Oc2ccc(NC(=O)C3(C(=O)Nc4ccc(F)cc4)CC3)cc2F)c1/C=N/OC1CCCC1,4.27,745,,
CC(O)CO/N=C/c1c(N)ncnc1Oc1ccc(NC(=O)C2(C(=O)Nc3ccc(F)cc3)CC2)cc1F (centres undefined),2.75,258,,
Nc1ncnc(Oc2ccc(NC(=O)C3(C(=O)Nc4ccc(F)cc4)CC3)cc2F)c1/C=N/OCCCO,2.67,110,210,
CN(C)CCCO/N=C/c1c(N)ncnc1Oc1ccc(NC(=O)C2(C(=O)Nc3ccc(F)cc3)CC2)cc1F,3.23,89,110,
Nc1ncnc(Oc2ccc(NC(=O)C3(C(=O)Nc4ccc(F)cc4)CC3)cc2F)c1/C=N/OCC(=O)N1CCOCC1,2.1,397,,
Nc1ncnc(Oc2ccc(NC(=O)C3(C(=O)Nc4ccc(F)cc4)CC3)cc2F)c1/C=N/OCCCN1CCOCC1,2.98,186,427,
Nc1ncnc(Oc2ccc(NC(=O)C3(C(=O)Nc4ccc(F)cc4)CC3)cc2F)c1/C=N/OC1CCCCC1,4.69,879,,
CNc1ncnc(Oc2ccc(NC(=O)C3(C(=O)Nc4ccc(F)cc4)CC3)cc2F)c1/C=N/OC,3.52,> 1000,,IC50 [5]: > 10000 nM; IC50 [6]: > 10000 nM
